Assay results from ChEMBL document CHEMBL5634096, “Design, synthesis and bioevaluation of PI3Kα-selective inhibitors as potential colorectal cancer drugs” (Eur J Med Chem, 2023).
Active and inactive are the calls of the source. No cut-off for these calls is given here.

Experiments:
[1] = Volume of distribution in Sprague-Dawley rat at 5 mg/kg, iv measured upto 24 hrs by LC-MS analysis; type: ADME, organism-based; conditions: in vivo
[2] = Metabolic stability in Sprague-Dawley rat liver microsomes assessed as intrinsic clearance at 5 ug/ml incubated for 1 hr in presence of NADPH by LC-MS/MS analysis; type: ADME, Microsome; conditions: dose 5 µg/ml
HCT-116 [3] = test: Antiproliferative activity against human HCT-116 cells assessed as reduction in cell viability incubated for 48 hrs by CCK-8 assay; type: functional, cell-based; conditions: dose 20-80 µM
[4] = target: Serine/threonine-protein kinase 17A (Homo sapiens) (UniProt Q9UEE5); test: Inhibition of human DRAK1 at 1 uM
Serine/threonine-protein kinase 17A (Homo sapiens), sequence (Q9UEE5 whole entry): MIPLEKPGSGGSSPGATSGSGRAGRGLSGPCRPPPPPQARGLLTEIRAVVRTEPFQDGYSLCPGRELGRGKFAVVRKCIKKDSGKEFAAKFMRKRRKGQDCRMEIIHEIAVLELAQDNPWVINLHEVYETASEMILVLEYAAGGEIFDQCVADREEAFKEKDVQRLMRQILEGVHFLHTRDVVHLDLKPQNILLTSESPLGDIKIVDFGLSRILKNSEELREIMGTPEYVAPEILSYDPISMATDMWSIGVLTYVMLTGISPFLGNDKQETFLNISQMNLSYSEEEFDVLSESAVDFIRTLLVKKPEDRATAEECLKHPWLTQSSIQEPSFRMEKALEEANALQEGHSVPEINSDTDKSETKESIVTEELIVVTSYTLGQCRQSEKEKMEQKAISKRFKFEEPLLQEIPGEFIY

A549 = test: Antiproliferative activity against human A549 cells assessed as reduction in cell viability at 10 uM incubated for 24 to 48 hrs by CCK-8 assay; type: functional, cell-based; conditions: time lower […], time upper 48.0 hrs
[5] = Cytotoxicity against human MCF-10A cells assessed as reduction in cell viability incubated for 24 to 48 hrs by CCK-8 assay; type: toxicity, cell-based
[6] = system: Receptor-type tyrosine-protein kinase FLT3 (Homo sapiens), P36888 [D835Y]; test: Inhibition of human FLT3 D835Y mutant at 1 uM
Cytochrome P450 2D6 = Cytochrome P450 2D6 (Homo sapiens, UniProt P10635); test: Inhibition of CYP2D6 in human liver microsomes using dextromethorphan as substrate pre-incubated for 30 mins followed by substrate addition and measured after 15 mins in presence of NADPH by LC/MS analysis; type: ADME, Microsome
Cytochrome P450 2D6, sequence (P10635 whole entry, canonical isoform): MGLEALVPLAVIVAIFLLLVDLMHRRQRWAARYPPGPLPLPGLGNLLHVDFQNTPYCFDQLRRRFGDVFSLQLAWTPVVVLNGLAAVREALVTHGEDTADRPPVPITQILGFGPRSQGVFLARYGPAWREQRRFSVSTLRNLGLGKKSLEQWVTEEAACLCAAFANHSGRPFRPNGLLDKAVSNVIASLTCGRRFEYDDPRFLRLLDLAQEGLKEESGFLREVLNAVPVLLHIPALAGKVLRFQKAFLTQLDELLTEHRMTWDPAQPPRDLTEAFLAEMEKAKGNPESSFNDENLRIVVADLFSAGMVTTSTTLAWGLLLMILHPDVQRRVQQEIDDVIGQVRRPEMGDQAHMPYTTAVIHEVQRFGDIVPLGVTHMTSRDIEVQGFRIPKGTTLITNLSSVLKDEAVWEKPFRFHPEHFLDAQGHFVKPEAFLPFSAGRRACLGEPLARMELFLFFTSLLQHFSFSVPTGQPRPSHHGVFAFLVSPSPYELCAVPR

[7] = target: Phosphatidylinositol 4,5-bisphosphate 3-kinase catalytic subunit beta isoform (Homo sapiens, UniProt P42338); test: Inhibition of PI3Kbeta (unknown origin) by ADP-Glo luminescent kinase assay
Phosphatidylinositol 4,5-bisphosphate 3-kinase catalytic subunit beta isoform, sequence (P42338 whole entry, canonical isoform): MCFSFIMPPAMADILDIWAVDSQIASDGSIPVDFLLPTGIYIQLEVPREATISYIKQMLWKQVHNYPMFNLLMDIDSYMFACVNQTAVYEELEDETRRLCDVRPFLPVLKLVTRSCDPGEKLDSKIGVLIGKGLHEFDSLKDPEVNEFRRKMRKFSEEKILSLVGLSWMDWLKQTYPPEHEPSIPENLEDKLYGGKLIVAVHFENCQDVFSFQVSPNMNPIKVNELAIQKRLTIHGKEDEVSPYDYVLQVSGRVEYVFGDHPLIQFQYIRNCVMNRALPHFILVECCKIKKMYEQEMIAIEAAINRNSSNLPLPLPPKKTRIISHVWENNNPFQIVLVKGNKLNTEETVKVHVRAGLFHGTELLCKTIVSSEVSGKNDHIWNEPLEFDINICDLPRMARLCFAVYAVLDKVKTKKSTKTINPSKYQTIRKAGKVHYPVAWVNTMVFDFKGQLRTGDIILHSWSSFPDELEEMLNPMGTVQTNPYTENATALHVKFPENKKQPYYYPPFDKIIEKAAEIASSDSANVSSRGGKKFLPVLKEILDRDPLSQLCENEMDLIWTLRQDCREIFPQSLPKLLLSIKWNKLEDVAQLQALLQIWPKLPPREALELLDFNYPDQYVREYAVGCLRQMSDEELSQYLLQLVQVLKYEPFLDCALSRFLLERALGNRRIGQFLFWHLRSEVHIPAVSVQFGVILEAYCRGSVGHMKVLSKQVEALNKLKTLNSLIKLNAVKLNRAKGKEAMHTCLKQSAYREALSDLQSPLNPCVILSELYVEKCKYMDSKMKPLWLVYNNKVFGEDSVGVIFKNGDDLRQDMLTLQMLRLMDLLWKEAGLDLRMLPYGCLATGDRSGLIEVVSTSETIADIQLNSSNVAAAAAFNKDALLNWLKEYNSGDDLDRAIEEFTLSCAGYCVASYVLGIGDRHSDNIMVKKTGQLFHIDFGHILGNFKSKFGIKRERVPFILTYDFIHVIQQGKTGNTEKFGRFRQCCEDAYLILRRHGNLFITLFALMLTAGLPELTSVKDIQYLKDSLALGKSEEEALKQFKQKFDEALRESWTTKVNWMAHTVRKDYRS

HeLa = test: Antiproliferative activity against human HeLa cells assessed as reduction in cell viability at 10 uM incubated for 24 to 48 hrs by CCK-8 assay; type: functional, cell-based; conditions: time lower […], time upper 48.0 hrs
[8] = target: Receptor-type tyrosine-protein kinase FLT3 (Homo sapiens) (UniProt P36888); test: Inhibition of human FLT3 at 1 uM
DU-145 = test: Antiproliferative activity against human DU-145 cells assessed as reduction in cell viability at 10 uM incubated for 24 to 48 hrs by CCK-8 assay; type: functional, cell-based; conditions: time lower […], time upper 48.0 hrs
HCT-116 [9] = test: Antiproliferative activity against human HCT-116 cells assessed as inhibition of Akt phosphorylation incubated for 48 hrs by Western blotting analysis; type: functional, cell-based; conditions: dose 3-12 µM
HCT-116 [10] = test: Antiproliferative activity against human HCT-116 cells assessed as inhibition of PI3K phosphorylation incubated for 48 hrs by Western blotting analysis; type: functional, cell-based; conditions: dose 3-12 µM
HCT-116 [11] = test: Induction of apoptosis in human HCT-116 cells assessed as increase in total apoptotic cells at 3 uM incubated for 48 hrs by Annexin V-FITC and propidium iodide staining based flow cytometry analysis (reference value: 4.22 %); type: functional
HCT-116 [12] = test: Antiproliferative activity against human HCT-116 cells assessed as inhibition of mTOR phosphorylation incubated for 48 hrs by Western blotting analysis; type: functional, cell-based; conditions: dose 3-12 µM
TE-1 = test: Antiproliferative activity against human TE-1 cells assessed as reduction in cell viability at 10 uM incubated for 24 to 48 hrs by CCK-8 assay; type: functional, cell-based; conditions: time lower […], time upper 48.0 hrs
HCT-116 [13] = test: Antiproliferative activity against human HCT-116 cells assessed as inhibition of ERK1/2 phosphorylation incubated for 48 hrs by Western blotting analysis; type: functional, cell-based; conditions: dose 3-12 µM
[14] = Cmax in Sprague-Dawley rat at 5 mg/kg, iv measured upto 24 hrs by LC-MS analysis; type: ADME, organism-based; conditions: in vivo
[15] = target: Phosphatidylinositol 4,5-bisphosphate 3-kinase catalytic subunit alpha isoform (Homo sapiens, UniProt P42336); test: Inhibition of PI3Kalpha (unknown origin) by ADP-Glo luminescent kinase assay
Phosphatidylinositol 4,5-bisphosphate 3-kinase catalytic subunit alpha isoform, sequence (P42336 whole entry, canonical isoform): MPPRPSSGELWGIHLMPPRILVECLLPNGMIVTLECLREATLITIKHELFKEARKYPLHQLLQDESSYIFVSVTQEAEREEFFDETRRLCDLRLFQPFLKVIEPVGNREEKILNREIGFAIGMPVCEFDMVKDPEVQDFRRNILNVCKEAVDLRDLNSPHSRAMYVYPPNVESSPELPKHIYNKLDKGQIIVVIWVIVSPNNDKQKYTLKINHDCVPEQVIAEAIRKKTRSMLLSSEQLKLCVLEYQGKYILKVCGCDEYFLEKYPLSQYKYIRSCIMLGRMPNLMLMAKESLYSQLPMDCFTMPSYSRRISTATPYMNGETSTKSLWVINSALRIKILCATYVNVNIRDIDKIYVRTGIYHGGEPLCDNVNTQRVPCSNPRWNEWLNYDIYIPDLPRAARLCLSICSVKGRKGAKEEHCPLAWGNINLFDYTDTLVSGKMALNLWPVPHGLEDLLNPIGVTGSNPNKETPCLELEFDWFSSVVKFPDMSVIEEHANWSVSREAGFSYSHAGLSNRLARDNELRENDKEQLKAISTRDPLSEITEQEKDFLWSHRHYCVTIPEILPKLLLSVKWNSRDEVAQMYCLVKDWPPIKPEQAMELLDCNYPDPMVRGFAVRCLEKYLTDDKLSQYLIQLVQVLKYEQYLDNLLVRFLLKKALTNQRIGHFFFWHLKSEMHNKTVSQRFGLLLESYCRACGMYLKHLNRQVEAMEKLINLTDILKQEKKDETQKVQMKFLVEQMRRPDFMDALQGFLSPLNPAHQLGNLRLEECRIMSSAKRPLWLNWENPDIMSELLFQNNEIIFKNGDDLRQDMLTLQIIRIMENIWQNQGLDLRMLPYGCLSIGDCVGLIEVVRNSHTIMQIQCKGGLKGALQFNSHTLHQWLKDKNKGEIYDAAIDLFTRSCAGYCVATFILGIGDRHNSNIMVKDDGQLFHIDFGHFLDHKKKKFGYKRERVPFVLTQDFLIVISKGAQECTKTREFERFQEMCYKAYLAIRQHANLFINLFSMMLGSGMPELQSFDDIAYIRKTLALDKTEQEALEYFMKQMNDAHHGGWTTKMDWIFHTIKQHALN

HCT-116 [16] = test: Antiproliferative activity against human HCT-116 cells assessed as reduction in cell viability incubated for 24 to 48 hrs by CCK-8 assay; type: functional, cell-based
MCF7 [17] = test: Antiproliferative activity against human MCF7 cells expressing PIK3CA with E545K mutation assessed as reduction in cell viability incubated for 24 to 48 hrs by CCK-8 assay; type: functional, cell-based
SF-126 = test: Antiproliferative activity against human SF-126 cells assessed as reduction in cell viability at 10 uM incubated for 24 to 48 hrs by CCK-8 assay; type: functional, cell-based; conditions: time lower […], time upper 48.0 hrs
HOS = test: Antiproliferative activity against human HOS cells assessed as reduction in cell viability at 10 uM incubated for 24 to 48 hrs by CCK-8 assay; type: functional, cell-based; conditions: time lower […], time upper 48.0 hrs
GBC-SD = test: Antiproliferative activity against human GBC-SD cells assessed as reduction in cell viability at 10 uM incubated for 24 to 48 hrs by CCK-8 assay; type: functional, cell-based; conditions: time lower […], time upper 48.0 hrs
[18] = Cytotoxicity against human NCM460 cells assessed as reduction in cell viability incubated for 24 to 48 hrs by CCK-8 assay; type: toxicity, cell-based
HCT-116 [19] = test: Induction of cell cycle arrest at G1/G0 phase in human HCT-116 cells assessed as decrease in cyclinE1 expression incubated for 48 hrs by Western blotting analysis; type: functional, cell-based; conditions: dose 3-12 µM
HepG2 = test: Antiproliferative activity against human HepG2 cells assessed as reduction in cell viability at 10 uM incubated for 24 to 48 hrs by CCK-8 assay; type: functional, cell-based; conditions: time lower […], time upper 48.0 hrs
HCT-116 [20] = test: Induction of cell cycle arrest in human HCT-116 cells assessed as increase in accumulation of cells at G1/G0 phase at 3 to 12 uM incubated for 48 hrs by PI staining based flow cytometry analysis (reference value: 36.6 %); type: functional; conditions: dose 3-12 µM
MCF7 [21] = test: Antiproliferative activity against human MCF7 cells assessed as reduction in cell viability incubated for 24 to 48 hrs by CCK-8 assay; type: functional, cell-based
[22] = MRT (0 to infinity) in Sprague-Dawley rat at 5 mg/kg, iv measured upto 24 hrs by LC-MS analysis; type: ADME, organism-based; conditions: in vivo
CAL-62 = test: Antiproliferative activity against human CAL-62 cells assessed as reduction in cell viability at 10 uM incubated for 24 to 48 hrs by CCK-8 assay; type: functional, cell-based; conditions: time lower […], time upper 48.0 hrs
HCT-116 [23] = test: Induction of apoptosis in human HCT-116 cells assessed as increased total apoptotic cells at 12 uM incubated for 48 hrs by Annexin V-FITC and propidium iodide staining based flow cytometry analysis (reference value: 4.22 %); type: functional
[24] = Clearance in Sprague-Dawley rat at 5 mg/kg, iv measured upto 24 hrs by LC-MS analysis; type: ADME, organism-based; conditions: in vivo
[25] = target: Phosphatidylinositol 4,5-bisphosphate 3-kinase catalytic subunit gamma isoform (Homo sapiens, UniProt P48736); test: Inhibition of PI3Kgamma (unknown origin) by ADP-Glo luminescent kinase assay
Phosphatidylinositol 4,5-bisphosphate 3-kinase catalytic subunit gamma isoform, sequence (P48736 whole entry, canonical isoform): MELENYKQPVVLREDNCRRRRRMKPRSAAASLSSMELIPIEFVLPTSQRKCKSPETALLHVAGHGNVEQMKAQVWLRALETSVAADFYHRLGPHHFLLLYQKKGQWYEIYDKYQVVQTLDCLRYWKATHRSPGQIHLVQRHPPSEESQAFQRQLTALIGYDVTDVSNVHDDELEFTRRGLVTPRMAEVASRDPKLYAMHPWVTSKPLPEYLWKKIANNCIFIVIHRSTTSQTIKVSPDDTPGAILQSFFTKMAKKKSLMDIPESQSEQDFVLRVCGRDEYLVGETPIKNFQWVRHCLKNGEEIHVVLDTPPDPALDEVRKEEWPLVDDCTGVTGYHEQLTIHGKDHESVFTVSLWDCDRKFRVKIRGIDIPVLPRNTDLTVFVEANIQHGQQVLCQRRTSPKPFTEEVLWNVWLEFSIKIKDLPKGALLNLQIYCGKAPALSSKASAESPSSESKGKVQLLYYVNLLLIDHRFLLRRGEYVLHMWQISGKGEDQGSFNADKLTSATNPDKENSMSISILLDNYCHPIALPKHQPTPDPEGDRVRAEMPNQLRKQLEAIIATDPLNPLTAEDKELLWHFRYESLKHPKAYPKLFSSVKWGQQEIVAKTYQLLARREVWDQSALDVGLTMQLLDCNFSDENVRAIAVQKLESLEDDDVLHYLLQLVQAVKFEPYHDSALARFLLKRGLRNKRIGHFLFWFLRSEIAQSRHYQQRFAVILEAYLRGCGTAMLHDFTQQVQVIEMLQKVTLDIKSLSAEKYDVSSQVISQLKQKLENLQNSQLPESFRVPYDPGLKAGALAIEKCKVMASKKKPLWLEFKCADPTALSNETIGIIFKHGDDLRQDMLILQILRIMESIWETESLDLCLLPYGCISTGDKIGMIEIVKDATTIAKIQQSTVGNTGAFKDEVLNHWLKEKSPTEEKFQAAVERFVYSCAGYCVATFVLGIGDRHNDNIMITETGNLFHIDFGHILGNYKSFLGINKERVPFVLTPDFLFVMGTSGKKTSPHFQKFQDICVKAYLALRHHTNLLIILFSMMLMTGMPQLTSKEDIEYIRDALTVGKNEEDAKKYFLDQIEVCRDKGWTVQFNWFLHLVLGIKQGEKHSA

[26] = Metabolic stability in Sprague-Dawley rat plasma assessed as compound remaining measured upto 3 hrs by LC-MS/MS analysis; type: ADME, cell-free
K562 = test: Antiproliferative activity against human K562 cells assessed as reduction in cell viability at 10 uM incubated for 24 to 48 hrs by CCK-8 assay; type: functional, cell-based; conditions: time lower […], time upper 48.0 hrs
Cytochrome P450 1A2 = Cytochrome P450 1A2 (Homo sapiens, UniProt P05177); test: Inhibition of CYP1A2 in human liver microsomes using phenacetin as substrate pre-incubated for 30 mins followed by substrate addition and measured after 15 mins in presence of NADPH by LC/MS analysis; type: ADME, Microsome
Cytochrome P450 1A2, sequence (P05177 whole entry): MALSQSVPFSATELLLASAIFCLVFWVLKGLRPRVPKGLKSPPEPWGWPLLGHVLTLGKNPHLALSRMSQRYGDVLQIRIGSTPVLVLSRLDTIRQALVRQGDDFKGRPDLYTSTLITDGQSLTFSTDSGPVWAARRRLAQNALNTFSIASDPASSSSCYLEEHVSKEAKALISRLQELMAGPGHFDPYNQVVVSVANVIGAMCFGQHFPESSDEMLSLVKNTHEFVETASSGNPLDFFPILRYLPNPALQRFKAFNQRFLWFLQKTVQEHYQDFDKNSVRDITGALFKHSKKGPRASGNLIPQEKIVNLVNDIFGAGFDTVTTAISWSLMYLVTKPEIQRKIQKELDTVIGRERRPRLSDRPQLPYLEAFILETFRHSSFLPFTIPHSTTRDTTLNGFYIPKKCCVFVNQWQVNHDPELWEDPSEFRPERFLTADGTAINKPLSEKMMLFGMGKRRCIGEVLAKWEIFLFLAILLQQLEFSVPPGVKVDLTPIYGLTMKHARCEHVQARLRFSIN

[27] = AUC (0 to infinity) in Sprague-Dawley rat at 5 mg/kg, iv measured upto 24 hrs by LC-MS analysis; type: ADME, organism-based; conditions: in vivo

Nc1nc2cc(-c3ccc4ncc(N5C[C@@H]6OCCO[C@@H]6C5)nc4c3)ccc2o1
Vd [1]: 5.2 L/kg
CLH [2]: 6 µL/min/mg
Activity (HCT-116 [3]): Dose-Dependent Effect
inhibition [4]: Active
Activity (A549): Active
IC50 [5]: 54 µM
inhibition [6]: Active
IC50 (Cytochrome P450 2D6): > 10 µM
IC50 [7]: 0.45 µM
Activity (HeLa): Active
inhibition [8]: Active
Activity (DU-145): Active
Activity (HCT-116 [9]): Dose-Dependent Effect
Activity (HCT-116 [10]): Dose-Dependent Effect
Activity (HCT-116 [11]): 5.99%
Activity (HCT-116 [12]): Dose-Dependent Effect
Activity (TE-1): Active
Activity (HCT-116 [13]): Dose-Dependent Effect
Cmax [14]: 6000 ng/mL
IC50 [15]: 0.0025 µM
IC50 (HCT-116 [16]): 3.79 µM
IC50 (MCF7 [17]): 3.32 µM
Activity (SF-126): Active
Activity (HOS): Active
Activity (GBC-SD): Active
IC50 [18]: 49.7 µM
Activity (HCT-116 [19]): Dose-Dependent Effect
Activity (HepG2): Active
Activity (HCT-116 [20]): 43.2%
IC50 (MCF7 [21]): 0.75 µM
MRT inf [22]: 1.8 h
Activity (CAL-62): Active
Activity (HCT-116 [23]): 27.03%
clearance [24]: 10 mL/min/kg
IC50 [25]: 0.2 µM
Stability [26]: Stable
Activity (K562): Active
IC50 (Cytochrome P450 1A2): > 10 µM
AUC(0-inf) [27]: 8250 ng·h/mL
